One test addresses Carbonic anhydrase 4 (Homo sapiens, UniProt P22748). The experiment in a line: Inhibition constant of anion against human carbonic anhydrase isozyme hCA IV.
The target in a further test is Carbonic anhydrase V (Homo sapiens, UniProt Q9Y2D0+P35218). The experiment in a line: Inhibition constant of anion against human carbonic anhydrase isozyme hCA V. Format: protein assay.
Another test has as its target Carbonic anhydrase 9 (Homo sapiens, UniProt Q16790). In words: Inhibition constant of anion against human carbonic anhydrase isozyme hCA IX.
In a further test the target is Carbonic anhydrase 2 (Homo sapiens, UniProt P00918). In words: Inhibition constant of anion against human carbonic anhydrase isozyme hCA II.
The target in test [1] is T1, Carbonic anhydrase 1 (Homo sapiens, UniProt P00915). The experiment in a line: Inhibition constant of anion against human carbonic anhydrase isozyme hCA I.
Test [2] addresses T1, Carbonic anhydrase 1. The experiment in a line: Inhibition constant of anion against human carbonic anhydrase isozyme hCA I; A = activator.

Among the data in ChEMBL document CHEMBL1138645, “Carbonic anhydrase inhibitors. Interaction of isozymes I, II, IV, V, and IX with phosphates, carbamoyl phosphate, and the phosphonate antiviral drug foscarnet” (Bioorg Med Chem Lett, 2004) are Ki values, retold here.

T1 sequence (P00915 whole entry): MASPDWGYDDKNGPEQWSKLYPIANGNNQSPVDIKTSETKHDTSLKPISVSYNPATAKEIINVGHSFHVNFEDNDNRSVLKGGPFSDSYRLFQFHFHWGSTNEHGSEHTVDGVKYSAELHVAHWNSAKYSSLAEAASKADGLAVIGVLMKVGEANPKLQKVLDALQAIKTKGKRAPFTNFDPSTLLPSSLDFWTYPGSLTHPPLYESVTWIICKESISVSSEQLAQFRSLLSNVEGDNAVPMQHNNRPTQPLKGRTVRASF
Carbonic anhydrase 4, sequence (P22748 whole entry): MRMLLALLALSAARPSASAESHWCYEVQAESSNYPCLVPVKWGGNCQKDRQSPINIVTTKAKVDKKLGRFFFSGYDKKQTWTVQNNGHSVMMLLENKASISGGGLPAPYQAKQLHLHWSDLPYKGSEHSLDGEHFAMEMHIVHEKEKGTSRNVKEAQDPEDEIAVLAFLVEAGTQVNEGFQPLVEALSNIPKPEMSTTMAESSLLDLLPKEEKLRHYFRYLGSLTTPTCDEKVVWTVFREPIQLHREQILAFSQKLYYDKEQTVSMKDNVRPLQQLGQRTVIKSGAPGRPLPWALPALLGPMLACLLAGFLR

As for `O=C([O-])[O-].[Na+].[Na+]` [SODIUM CARBONATE], the inhibitory constant (Ki) (as a rule, the dissociation constant of the complex between target and ligand, obtained from inhibition or displacement) on Carbonic anhydrase 4 came to 5.7 mM; on Carbonic anhydrase V, 95 mM.
As to `NC(=O)OP(=O)([O-])[O-].[Na+].[Na+]` [CARBAMOYL PHOSPHATE; DI SODIUM], the inhibition constant Ki worked out at 0.0099 mM at Carbonic anhydrase 4; 3.06 mM on Carbonic anhydrase 9; 0.0085 mM on Carbonic anhydrase V; 0.31 mM on Carbonic anhydrase 2; 0.0094 mM on Carbonic anhydrase 1 [1].
On to `O=C([O-])O.[Na+]` [SODIUM BICARBONATE], for which the values for the Ki on Carbonic anhydrase 4, on Carbonic anhydrase 9 and at Carbonic anhydrase V were 6.6 mM, 13 mM and 82 mM, respectively.
Take `O=P([O-])(O)O.[Na+]` [SODIUM PHOSPHATE, MONOBASIC]: the Ki at Carbonic anhydrase V is 3.3 mM; on Carbonic anhydrase 1 [2], “Activator”.
With `O=C([O-])P(=O)([O-])[O-].[Na+].[Na+].[Na+]` [FOSCARNET SODIUM], the Ki was 0.82 mM on Carbonic anhydrase 4; 2.21 mM on Carbonic anhydrase 9; 41.7 mM at Carbonic anhydrase V; 14.2 mM at Carbonic anhydrase 2; “Activator” at Carbonic anhydrase 1 [2].
With `O=C[O-].[Na+]` [SODIUM FORMATE], the Ki on Carbonic anhydrase 9 was 1.22 mM; at Carbonic anhydrase V it was 9.97 mM; on Carbonic anhydrase 2 it was 24 mM; at Carbonic anhydrase 1 [2] it was “Activator”.
For the compound `O=P([O-])([O-])O.[Na+].[Na+]` [SODIUM PHOSPHATE, DIBASIC, ANHYDROUS], the Ki at Carbonic anhydrase V is on record as 4.49 mM; on Carbonic anhydrase 1 [2] it was “Activator”.
